Experimental data taken from US10821106B2, “Composition and methods of use of novel phenylalanine small organic compounds to directly modulate PCSK9 protein activity” (SRX Cardio, LLC, priority 2015, dated 2020).

Assays:
recombinant PCSK9 [1] = target: T1, recombinant PCSK9 (Homo sapiens, UniProt Q8NBP7); assay: DiI-LDL Uptake Assay in HepG2 cells; assay type: cell-based; details: 2.5 ug/mL PCSK9, DiI-LDL 5 ug/ml, read-out: Uptake Assay: % Inhibition of 2.5 ug/mL recombinant PCSK9 @ X compound dose; for inhibition at 1.25 µM: 1.25 uM compound
Protocol: The cells were incubated in a 96-well plate for a total of 16 h in the absence or presence of recombinant PCSK9 (final concentration 2.5 ug/ml) protein alone or recombinant PCSK9 protein pre-mixed with indicated concentration of experimental compounds (Cmpd #). After 16 h, DiI-LDL (final concentration 5 ug/ml) was added to the incubation mixtures. After 4 h, cells are stained with Hoechst 33342 for 30 minutes, then rinsed with phosphate buffered saline, and then a final volume of 100 ul phosphate buffered saline was added to each well. The fluorescence was measured (DiI: excitation at 550 nm and emission at 590 nm; Hoechst: excitation at 355 nm, emission at 460 nm). The percent recombinant PCSK9 inhibition was calculated as [‘Compound Dose DiI Fluorescence’-‘2.5 ug/ml PCSK9-treated DiI Fluorescence’]/[‘No PCSK9 DiI Fluorescence’-‘2.5 ug/ml PCSK9-treated DiI Fluorescence’]×100%.
Cellular DiI-LDL uptake can be measured using protocols adapted from Benjannet et al., “Effects of the prosegment and pH on the activity of PCSK9: evidence for additional processing events” J Biol Chem. 285(52): 40965-40978 (2010) and “Composition and Methods of Use of Small Molecules as Binding Ligands for the Modulation of Proprotein Convertase Subtilisin/Kexin Type 9 (PCSK9) Protein Activity” (WO2016029037), which are incorporated by reference in their entirety.
Cells, such as HepG2, HuH7, FL83B, or a cell line transfected with a short-hairpin PCSK9 knockdown sequence such as HepG2/shPCSK9, HuH7/shPCSK9, or FL83B/shPCSK9 are plated and cultured at 37° C. for 12-24 h. Culture media is removed and replaced with fresh lipoprotein-depleted culture media supplemented with 5 ug/mL of DiI-LDL (Kalen Biomedical) or lipoprotein-depleted culture media supplemented with 5 ug/mL of DiI-LDL plus a predetermined concentration of recombinant PCSK9, for example a 10 nM final concentration of PCSK9. Lipoprotein-depleted culture media can be composed of DMEM (Invitrogen) with 10% lipoprotein-depleted fetal bovine serum (Kalen Biomedical) and supplemented with penicillin-streptomycin (Life Technologies). Cells are dosed with small molecule test compounds at doses ranging from 0 nM to 100 uM.
Following an incubation period of specified length, such as 6 hours, Hoechst 33342 (AnaSpec) stain is added to the cell media per manufacturer's instructions and incubated for a specified length (e.g., 30 minutes). The lipoprotein-depleted media is removed and cells rinsed three times with phosphate buffered saline. A final volume of phosphate buffered saline is added back to the wells. The DiI fluorescence is measured with a plate reader using an exciting wavelength of 550 nm and the resulting emission at 590 nm is measured. The Hoechst stain fluorescence is measured with a plate reader using an exciting wavelength of 355 nm and the resulting emission at 460 nm is measured.
Cells are analyzed by for both Hoechst stain (DNA content) and DiI-LDL fluorescence. Cells incubated with small molecule compounds that are inhibitors of PCSK9 will be expected to show increased amounts of DiI-LDL fluorescence, relative to control (no compound) specimens, and cells incubated with small molecule compounds that are activators of PCSK9 will be expected to show decreased amounts of DiI-LDL fluorescence relative to control (no compound) specimens.

recombinant PCSK9 [2] = target: T1, recombinant PCSK9; assay: LDLR Flow / FACS Assay in HuH7 cells; assay type: cell-based; details: 5.0 ug/mL PCSK9, 6 h, read-out: LDLR Flow Assay: % Inhibition of 5.0 ug/mL recombinant PCSK9 @ X compound dose; for inhibition at 1.25 µM: Huh-7, 1.25 uM compound
Protocol: The cells were incubated in 24-well plates for a total of 6 h in the absence or presence of recombinant PCSK9 protein (final concentration of 5.0 ug/ml), or in the presence of PCSK9 protein mixed with indicated concentration of experimental compound (Cmpd #). After 6 hours, the cells were released from the plate, stained with anti-LDLR antibody, then rinsed, counterstained with DAPI, and then measured by fluorescence activated cell sorting (FACS). The percent recombinant PCSK9 inhibition was calculated as [‘Compound Dose LDLR Fluorescence’-‘5.0 ug/ml PCSK9-treated LDLR Fluorescence’]/[‘No PCSK9 Basal LDLR Fluorescence’-‘5.0 ug/ml PCSK9-treated LDLR Fluorescence’]×100%.
LDLR levels can be measured using flow cytometry or fluorescence activated cell sorting (FACS) using protocols adapted from Benjannet et al., “Effects of the prosegment and pH on the activity of PCSK9: evidence for additional processing events” J Biol Chem. 285(52): 40965-40978 (2010) and “Composition and Methods of Use of Small Molecules as Binding Ligands for the Modulation of Proprotein Convertase Subtilisin/Kexin Type 9 (PCSK9) Protein Activity” (WO2016029037), which are incorporated by reference in their entirety.
Cells, such as HepG2, HuH7, FL83B, or a cell line transfected with a short-hairpin PCSK9 knockdown sequence such as HepG2/shPCSK9, HuH7/shPCSK9, or FL83B/shPCSK9 are plated and cultured at 37° C. for 12-24 h. Culture media is removed and replaced with fresh culture media or culture media plus a predetermined amount of recombinant PCSK9, for example a 10 nM final concentration of PCSK9. Cell culture media can be composed of DMEM (Invitrogen) with 10% fetal bovine serum (Life Technologies) supplemented with penicillin-streptomycin (Life Technologies). Cells are dosed with small molecule test compounds at doses ranging from 0 nM to 100 uM […]
Cells are analyzed for both cell viability marker (dead cells) and LDLR in live cells using a flow cytometer per the manufacturer's operating manual. […]

T1 sequence (Q8NBP7 153-692): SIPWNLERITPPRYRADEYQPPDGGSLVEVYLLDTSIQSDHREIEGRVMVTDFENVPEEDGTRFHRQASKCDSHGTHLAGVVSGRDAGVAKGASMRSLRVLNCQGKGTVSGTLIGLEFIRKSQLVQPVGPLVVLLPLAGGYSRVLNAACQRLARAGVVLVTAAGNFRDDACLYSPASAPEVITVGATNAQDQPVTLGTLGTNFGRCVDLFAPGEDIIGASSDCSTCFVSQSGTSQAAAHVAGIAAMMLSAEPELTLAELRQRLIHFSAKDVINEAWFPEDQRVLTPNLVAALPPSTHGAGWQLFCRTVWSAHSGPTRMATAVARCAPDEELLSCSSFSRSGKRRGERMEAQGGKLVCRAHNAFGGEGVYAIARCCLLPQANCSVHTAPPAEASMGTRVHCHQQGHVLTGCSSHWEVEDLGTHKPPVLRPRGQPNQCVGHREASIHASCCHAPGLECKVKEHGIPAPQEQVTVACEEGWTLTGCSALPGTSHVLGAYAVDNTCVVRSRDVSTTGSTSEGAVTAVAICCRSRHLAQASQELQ

Row | SMILES | inhibition at 1.25 µM (recombinant PCSK9 [1]) [%] | inhibition at 10 µM (recombinant PCSK9 [1]; 10 uM compound) [%] | inhibition at 1.25 µM (recombinant PCSK9 [2]) [%] | inhibition at 10 µM (recombinant PCSK9 [2]; Huh-7, 10 uM compound) [%]
1 | CC(C)NC(=O)[C@@H](N)Cc1ccc(-c2ccccc2)cc1 [Compound 1, (S)-3-([1,1′-biphenyl]-4-yl)-2-amino-N-isopropylpropanamide] | ~15 | > 100 | ~15 | ~55
2 | CC(C)NC(=O)[C@@H](N)Cc1ccc(-c2cc[nH]c(=O)c2)cc1 [Compound 2, (S)-2-amino-N-isopropyl-3-(4-(2-oxo-1,2-dihydropyridin-4-yl)phenyl)propanamide] | ~40 |  |  | 
3 | CC(C)NC(=O)[C@@H](N)Cc1ccc(-c2cccc(O)c2)cc1 [Compound 3, (S)-2-amino-3-(3′-hydroxy-[1,1′-biphenyl]-4-yl)-N-isopropylpropanamide] | ~44 |  |  | 
4 | Cc1cc(C[C@H](N)C(=O)NC(C)C)ccc1-c1cccc(O)c1 [Compound 4, (S)-2-amino-3-(3′-hydroxy-2-methyl-[1,1′-biphenyl]-4-yl)-N-isopropylpropanamide] | ~28 |  | ~10 | 
